This passage reports IC50 results from patent US20240208968A1, “ALPHA V BETA 6 AND ALPHA V BETA 1 INTEGRIN INHIBITORS AND USES THEREOF” (DiCE Molecules SV, Inc., priority 2021, published 2024).

In general, IC50 refers to the concentration at which inhibition is half-maximal. A high value points to a need for much substance.

One assay has as its target αvβ6 (Homo sapiens, UniProt P06756+P18564). In words: Solid Phase Integrin αvβ6 Assay. It is filed as binding. As for the experimental part: (§1) The compounds exemplified in this document were tested for their ability to inhibit αvβ1 and αvβ6 in below described solid phase integrin assays.
Solid Phase Integrin αvβ6 Assay
96-well microtiter plates (4 HBX Immulon; Thermo Fisher Scientific, Waltham, MA) were coated with 100 μL/well of 1 μg/mL recombinant TGFb1-LAP in TBS at 4° C., overnight. The coating solution was removed, and plates were blocked with 200 μL/well of blocking and binding buffer (2% BSA/TBST, 1 mM MnCl2) at room temperature for 1 hr. Blocking buffer was removed and 50 uL of binding buffer and testing compounds were added. 50 μL of diluted αvβ6 (0.2 μg/mL in binding buffer) was added to wells (100 uL/well total) and plates incubated for 1 hr at room temperature. Wells were washed thrice with washing buffer (TBS, 0.05% Tween, 1 mM MnCl2) and plates were incubated with 100 μL/well of a 1:12500) dilution of streptavidin-horseradish peroxidase conjugate (Thermo Fisher Scientific) in binding buffer for 20 min at room temperature. Bound protein was detected using the substrate TMB. The IC50 values for testing compounds were calculated by Levenberg-Marquardt four parameter fitting logistics.

The target of the next assay is αvβ1 (Homo sapiens, UniProt P05556+P06756). The experiment in a line: Solid Phase Integrin αvβ1 Assay. Format: binding. How it is done:
as §1
Solid Phase Integrin αvβ1 Assay
96-well microtiter plates (4 HBX Immulon; Thermo Fisher Scientific, Waltham, MA) were coated with 100 μL/well of 1 μg/mL recombinant TGFb1-LAP in TBS at 4° C., overnight. The coating solution was removed, and plates were blocked with 200 μL/well of blocking and binding buffer (2% BSA/TBST, 1 mM MnCl2) at room temperature for 1 hr. Blocking buffer was removed and 50 μL of binding buffer and testing compounds were added. 50 μL of diluted αvβ1 (0.2 ug/mL in binding buffer) was added to wells (100 μL/well total) for and plates incubated for 90 min at room temperature. Wells were washed thrice with washing buffer (TBS, 0.05% Tween, 1 mM MnCl2) and plates were incubated with 100 μL/well of a 1:12500 dilution of streptavidin-horseradish peroxidase conjugate (Thermo Fisher Scientific) in binding buffer for 20 min at room temperature. Bound protein was detected using the substrate TMB. The IC50 values for testing compounds were calculated by Levenberg-Marquardt four parameter fitting logistics.

Counter-ions that a name gives are not always drawn.

αvβ6, sequence (P06756 31-992 limits assumed): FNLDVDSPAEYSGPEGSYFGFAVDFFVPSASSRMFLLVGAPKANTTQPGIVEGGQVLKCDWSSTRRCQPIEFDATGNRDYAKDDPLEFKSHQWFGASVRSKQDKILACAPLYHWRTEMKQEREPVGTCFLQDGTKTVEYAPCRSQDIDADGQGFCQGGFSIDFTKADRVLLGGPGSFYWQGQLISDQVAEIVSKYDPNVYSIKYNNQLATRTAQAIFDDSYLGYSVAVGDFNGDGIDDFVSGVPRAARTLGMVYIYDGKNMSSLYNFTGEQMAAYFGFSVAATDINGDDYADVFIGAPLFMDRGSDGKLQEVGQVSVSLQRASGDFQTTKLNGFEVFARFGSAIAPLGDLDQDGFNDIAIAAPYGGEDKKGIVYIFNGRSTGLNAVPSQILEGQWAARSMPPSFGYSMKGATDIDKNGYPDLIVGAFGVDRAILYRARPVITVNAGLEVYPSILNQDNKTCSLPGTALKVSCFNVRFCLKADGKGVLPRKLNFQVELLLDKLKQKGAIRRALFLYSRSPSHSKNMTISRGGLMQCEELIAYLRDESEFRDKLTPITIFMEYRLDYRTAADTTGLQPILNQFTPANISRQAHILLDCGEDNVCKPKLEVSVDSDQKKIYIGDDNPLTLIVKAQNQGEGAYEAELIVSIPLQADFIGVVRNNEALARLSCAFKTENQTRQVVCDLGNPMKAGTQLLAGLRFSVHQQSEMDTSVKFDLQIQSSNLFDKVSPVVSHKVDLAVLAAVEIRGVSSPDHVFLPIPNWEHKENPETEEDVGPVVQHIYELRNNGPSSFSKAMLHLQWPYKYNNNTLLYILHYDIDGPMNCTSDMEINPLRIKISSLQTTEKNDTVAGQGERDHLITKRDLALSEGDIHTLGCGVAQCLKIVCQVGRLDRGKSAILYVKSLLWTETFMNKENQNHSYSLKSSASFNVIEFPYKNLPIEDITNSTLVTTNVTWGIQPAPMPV
αvβ6, sequence (P18564 22-707 limits assumed): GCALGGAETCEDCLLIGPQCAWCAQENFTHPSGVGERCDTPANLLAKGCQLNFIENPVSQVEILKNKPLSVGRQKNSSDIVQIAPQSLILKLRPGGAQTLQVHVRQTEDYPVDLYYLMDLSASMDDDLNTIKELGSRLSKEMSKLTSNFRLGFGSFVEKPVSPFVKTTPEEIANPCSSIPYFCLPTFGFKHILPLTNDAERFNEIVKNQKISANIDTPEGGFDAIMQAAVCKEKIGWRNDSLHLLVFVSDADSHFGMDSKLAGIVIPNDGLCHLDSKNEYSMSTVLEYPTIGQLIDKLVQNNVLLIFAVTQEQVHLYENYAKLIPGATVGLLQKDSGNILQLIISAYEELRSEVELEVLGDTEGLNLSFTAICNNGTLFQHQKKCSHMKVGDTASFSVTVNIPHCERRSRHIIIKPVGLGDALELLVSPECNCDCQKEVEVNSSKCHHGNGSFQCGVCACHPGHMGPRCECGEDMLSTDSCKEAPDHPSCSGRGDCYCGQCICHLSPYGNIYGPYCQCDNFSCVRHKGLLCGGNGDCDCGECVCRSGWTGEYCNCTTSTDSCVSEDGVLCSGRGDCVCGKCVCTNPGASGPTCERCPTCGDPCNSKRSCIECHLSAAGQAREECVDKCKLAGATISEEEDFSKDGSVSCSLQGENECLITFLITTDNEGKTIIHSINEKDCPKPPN
αvβ1, sequence (P06756 31-992 limits assumed): as the sequence (P06756 31-992 limits assumed) above
αvβ1, sequence (P05556 21-728 limits assumed): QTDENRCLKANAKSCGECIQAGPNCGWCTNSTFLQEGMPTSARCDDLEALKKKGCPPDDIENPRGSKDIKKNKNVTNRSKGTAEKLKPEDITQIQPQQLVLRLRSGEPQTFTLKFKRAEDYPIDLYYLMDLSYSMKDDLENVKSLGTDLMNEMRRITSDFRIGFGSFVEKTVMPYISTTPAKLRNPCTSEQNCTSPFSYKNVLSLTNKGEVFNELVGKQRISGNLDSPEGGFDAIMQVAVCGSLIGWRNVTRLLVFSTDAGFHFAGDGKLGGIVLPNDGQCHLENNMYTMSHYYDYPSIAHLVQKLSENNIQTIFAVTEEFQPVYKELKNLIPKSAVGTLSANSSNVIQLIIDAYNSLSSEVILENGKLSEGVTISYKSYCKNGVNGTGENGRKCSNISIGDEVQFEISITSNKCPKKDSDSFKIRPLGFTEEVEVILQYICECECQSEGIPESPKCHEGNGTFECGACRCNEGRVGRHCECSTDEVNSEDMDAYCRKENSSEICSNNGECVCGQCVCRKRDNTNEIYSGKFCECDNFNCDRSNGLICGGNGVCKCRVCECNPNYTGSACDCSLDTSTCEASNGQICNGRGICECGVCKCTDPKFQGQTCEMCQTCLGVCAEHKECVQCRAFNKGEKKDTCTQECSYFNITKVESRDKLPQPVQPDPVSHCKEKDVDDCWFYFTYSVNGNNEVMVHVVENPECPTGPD

As to `O=C(O)C[C@H](NC(=O)[C@@H]1CCCN(CCCc2ccc3c(n2)NCCC3)C1)c1ccc2nccnc2c1` [Compound 215-A, 3-(quinoxalin-6-yl)-3-((R)-1-(3-(5,6,7,8-tetrahydro-1,8-naphthyridin-2-yl)propyl)piperidine-3-carboxamido)propanoic acid], the IC50 against αvβ6 and on αvβ1 was less than 100 nM in each case.
For `O=C(O)C[C@@H](NC(=O)[C@@H]1CCCN(CCCc2ccc3c(n2)NCCC3)C1)c1ccc2nccnc2c1` [Compound 215-B, 3-(quinoxalin-6-yl)-3-((R)-1-(3-(5,6,7,8-tetrahydro-1,8-naphthyridin-2-yl)propyl)piperidine-3-carboxamido)propanoic acid], the IC50 against αvβ6 and against αvβ1 was less than 100 nM in each case.
Consider `O=C(O)C[C@H](NC(=O)[C@@H]1CCCN(CCCc2ccc3c(n2)NCCC3)C1)c1cccc2c1CCCO2` [Compound 216-A, 3-(chroman-5-yl)-3-((R)-1-(3-(5,6,7,8-tetrahydro-1,8-naphthyridin-2-yl)propyl)piperidine-3-carboxamido)propanoic acid], for which the IC50 against αvβ6 was less than 100 nM; against αvβ1, 100 to 1000 nM.
For `O=C(O)C[C@@H](NC(=O)[C@@H]1CCCN(CCCc2ccc3c(n2)NCCC3)C1)c1cccc2c1CCCO2` [Compound 216-B, 3-(chroman-5-yl)-3-((R)-1-(3-(5,6,7,8-tetrahydro-1,8-naphthyridin-2-yl)propyl)piperidine-3-carboxamido)propanoic acid], in that order: greater than 1000 nM and greater than 1000 nM.
`O=C(O)CC(NC(=O)[C@@H]1CCCN(CCCc2ccc3c(n2)NCCC3)C1)c1ccc2c(c1)OCC2` (stereo partly drawn) [Compound 217, 3-(2,3-dihydrobenzofuran-6-yl)-3-((R)-1-(3-(5,6,7,8-tetrahydro-1,8-naphthyridin-2-yl)propyl)piperidine-3-carboxamido)propanoic acid hydrochloride]: the IC50 against αvβ6 and at αvβ1 was less than 100 nM each time.
Turning to `O=C(O)CC(NC(=O)[C@@H]1CCCN(CCCc2ccc3c(n2)NCCC3)C1)c1cccc2c1OCO2` (stereo partly drawn) [Compound 218, 3-(benzo[d][1,3]dioxol-4-yl-3-((R)-1-(3-(5,6,7,8-tetrahydro-1,8-naphthyridin-2-yl)propyl)piperidine-3-carboxamido)propanoic acid hydrochloride], the IC50 at αvβ6 and at αvβ1 was less than 100 nM throughout.
For `O=C(O)CC(NC(=O)[C@@H]1CCCN(CCCc2ccc3c(n2)NCCC3)C1)c1cccc2c1CCO2` (stereo partly drawn) [Compound 219, 3-(2,3-dihydrobenzofuran-4-yl)-3-((R)-1-(3-(5,6,7,8-tetrahydro-1,8-naphthyridin-2-yl)propyl)piperidine-3-carboxamido)propanoic acid hydrochloride], the IC50 at αvβ6 and against αvβ1 was less than 100 nM in each case.
For the molecule `O=C(O)C[C@H](NC(=O)[C@@H]1CCCN(CCCc2ccc3c(n2)NCCC3)C1)c1cc(Cl)cc(Cl)c1` [Compound 220, (S)-3-(3,5-dichlorophenyl)-3-((R)-1-(3-(5,6,7,8-tetrahydro-1,8-naphthyridin-2-yl)propyl)piperidine-3-carboxamido)propanoic acid], the half-maximal inhibitory concentration (IC50) against αvβ6 and on αvβ1 was less than 100 nM each time.
Regarding `COc1ccc([C@H](CC(=O)O)NC(=O)[C@@H]2CCCN(CCCc3ccc4c(n3)NCCC4)C2)cn1` [Compound 221, (S)-3-(6-methoxypyridin-3-yl)-3-((R)-1-(3-(5,6,7,8-tetrahydro-1,8-naphthyridin-2-yl)propyl)piperidine-3-carboxamido)propanoic acid hydrochloride], the IC50 against αvβ6 and on αvβ1 was less than 100 nM each time.
Regarding `O=C(O)CC(NC(=O)[C@@H]1CCCN(CCCc2ccc3c(n2)NCCC3)C1)c1cc(Cl)cc(C(F)(F)F)c1` (stereo partly drawn) [Compound 222, 3-(3-chloro-5-(trifluoromethyl)phenyl)-3-((R)-1-(3-(5,6,7,8-tetrahydro-1,8-naphthyridin-2-yl)propyl)piperidine-3-carboxamido)propanoic acid hydrochloride], the IC50 against αvβ6 and on αvβ1 was less than 100 nM throughout.
Turning to `O=C(O)CC(NC(=O)[C@@H]1CCCN(CCCc2ccc3c(n2)NCCC3)C1)c1cc(C(F)(F)F)cc(C(F)(F)F)c1` (stereo partly drawn) [Compound 223, 3-(3,5-bis(trifluoromethyl)phenyl)-3-((R)-1-(3-(5,6,7,8-tetrahydro-1,8-naphthyridin-2-yl)propyl)piperidine-3-carboxamido)propanoic acid formic acid], the IC50 against αvβ6 and at αvβ1 was less than 100 nM throughout.
Regarding `O=C(O)C[C@H](NC(=O)[C@@H]1CCCN(CCCc2ccc3c(n2)NCCC3)C1)c1cccc(C2CC2)c1` [Compound 224, (S)-3-(3-Cyclopropylphenyl)-3-((R)-1-(3-(5,6,7,8-Tetrahydro-1,8-Naphthyridin-2-YI)Propyl)Piperidine-3-Carboxamido)Propanoic Acid hydrochloride], the IC50 at αvβ6 and against αvβ1 was less than 100 nM each time.
In the case of `Cc1cc(C)n(-c2cccc([C@H](CC(=O)O)NC(=O)[C@@H]3CCCN(CCCc4ccc5c(n4)NCCC5)C3)c2)n1` [Compound 225, (S)-3-(3-(3,5-dimethyl-1H-pyrazol-1-yl)phenyl)-3-((R)-1-(3-(5,6,7,8-tetrahydro-1,8-naphthyridin-2-yl)propyl)piperidine-3-carboxamido)propanoic acid hydrochloride], the IC50 at αvβ6 and at αvβ1 was less than 100 nM each time.
With `Cc1cnn(C)c1-c1cccc([C@H](CC(=O)O)NC(=O)[C@@H]2CCCN(CCCc3ccc4c(n3)NCCC4)C2)c1` [Compound 226, (S)-3-(3-(1,4-dimethyl-1H-pyrazol-5-yl)phenyl)-3-((R)-1-(3-(5,6,7,8-tetrahydro-1,8-naphthyridin-2-yl)propyl)piperidine-3-carboxamido)propanoic acid hydrochloride], the IC50 against αvβ6 and against αvβ1 was less than 100 nM in each case.
On to `O=C(O)C[C@H](NC(=O)[C@@H]1CCCN(CCCc2ccc3c(n2)NCCC3)C1)c1cccc(N2CCCC2)c1` [Compound 227, (S)-3-(3-(pyrrolidin-1-yl)phenyl)-3-((R)-1-(3-(5,6,7,8-tetrahydro-1,8-naphthyridin-2-yl)propyl)piperidine-3-carboxamido)propanoic acid], for which the IC50 at αvβ6 and on αvβ1 was less than 100 nM throughout.
As for `CN1CCN(c2cccc([C@H](CC(=O)O)NC(=O)[C@@H]3CCCN(CCCc4ccc5c(n4)NCCC5)C3)c2)CC1` [Compound 228, (S)-3-(3-(4-methylpiperazin-1-yl)phenyl)-3-((R)-1-(3-(5,6,7,8-tetrahydro-1,8-naphthyridin-2-yl)propyl)piperidine-3-carboxamido)propanoic acid], the IC50 on αvβ6 and against αvβ1 was less than 100 nM in each case.
`O=C(O)C[C@H](NC(=O)[C@@H]1CCCN(CCCc2ccc3c(n2)NCCC3)C1)c1cccc(N2CCOCC2)c1` [Compound 229, (S)-3-(3-morpholinophenyl)-3-((R)-1-(3-(5,6,7,8-tetrahydro-1,8-naphthyridin-2-yl)propyl)piperidine-3-carboxamido)propanoic acid hydrochloride]: the IC50 against αvβ6 and on αvβ1 was less than 100 nM each time.
Consider `CC1(C)CCCN(c2cccc([C@H](CC(=O)O)NC(=O)[C@@H]3CCCN(CCCc4ccc5c(n4)NCCC5)C3)c2)C1` [Compound 230, (S)-3-(3-(3,3-dimethylpiperidin-1-yl)phenyl)-3-((R)-1-(3-(5,6,7,8-tetrahydro-1,8-naphthyridin-2-yl)propyl)piperidine-3-carboxamido)propanoic acid], for which the IC50 on αvβ6 and against αvβ1 was less than 100 nM in each case.
For the molecule `O=C(O)C[C@H](NC(=O)[C@@H]1CCCN(CCCc2ccc3c(n2)NCCC3)C1)c1cccc(C2CCCC2)c1` [Compound 231, (S)-3-(3-cyclopentylphenyl)-3-((R)-1-(3-(5,6,7,8-tetrahydro-1,8-naphthyridin-2-yl)propyl)piperidine-3-carboxamido)propanoic acid hydrochloride], the IC50 against αvβ6 and at αvβ1 was less than 100 nM in each case.
Consider `O=C(O)C[C@H](NC(=O)[C@@H]1CCCN(CCCc2ccc3c(n2)NCCC3)C1)c1cccc(N2CCCCC2)c1` [Compound 232, (S)-3-(3-(piperidin-1-yl)phenyl)-3-((R)-1-(3-(5,6,7,8-tetrahydro-1,8-naphthyridin-2-yl)propyl)piperidine-3-carboxamido)propanoic acid hydrochloride], for which the IC50 at αvβ6 and at αvβ1 was less than 100 nM each time.
